As a reminder, the chromatographic logP is lipophilicity estimated from chromatographic retention. Lower therefore signals lower lipophilicity.

One series can be described thus: logP determination by retention times (calibration with alkan-2-ones). The conditions noted are these: * HPLC reversed-phase C18, 40° C., mobile phase 0.1% aqueous formic acid and acetonitrile, linear gradient 10% to 95% acetonitrile.
Take `CNc1nc(C)c(-c2ccnc(Nc3ccc(O)cc3)n2)s1` [Example 746, 4-({4-[4-methyl-2-(methylamine)-1,3-thiazol-5-yl]pyrimidin-2-yl}amino)phenol]: the logP was 1.11*.

The series is the same for the next values; noted with them: logP, * HPLC reversed-phase C18, 40° C., mobile phase 0.1% aqueous formic acid and acetonitrile, linear gradient 10% to 95% acetonitrile.
Turning to `COc1cc(Nc2nccc(-c3sc(-c4cccnc4)nc3C)n2)cc(OC)c1OC` [Example 713, 4-(4-methyl-2-pyridin-3-yl-1,3-thiazol-5-yl)-N-(3,4,5-trimethoxyphenyl)pyrimidine-2-amine], the chromatographic logP was found to be 2.56.
Same read-out and setting: for `CCc1nc(C)c(-c2ccnc(Nc3cccnc3)n2)s1` [Example 714, 4-(2-ethyl-4-methyl-1,3-thiazol-5-yl)-N-pyridin-3-ylpyrimidine-2-amine] the value was 1.35; for `Cc1nc(-c2cccnc2)sc1-c1ccnc(Nc2ccccc2)n1` [Example 715, 4-(4-methyl-2-pyridin-3-yl-1,3-thiazol-5-yl)-N-phenylpyrimidine-2-amine], 3.04.
The compound `Cc1nc(C)c(-c2ccnc(Nc3cccnc3)n2)s1` [Example 716, 4-(2,4-dimethyl-1,3-thiazol-5-yl)-N-pyridin-3-ylpyrimidine-2-amine] displayed a chromatographic logP of 0.98.
On the same count and under the same terms, then `CCc1nc(C)c(-c2ccnc(Nc3ccc(C(C)=O)cc3)n2)s1` [Example 717, 1-(4-{[4-(2-ethyl-4-methyl-1,3-thiazol-5-yl)pyrimidin-2-yl]amino}phenyl)ethanone], with 2.6; and `CCc1nc(C)c(-c2ccnc(Nc3ccc(C)c(C)c3)n2)s1` [Example 718, N-(3,4-dimethylphenyl)-4-(2-ethyl-4-methyl-1,3-thiazol-5-yl)pyrimidine-2-amine], with 3.71; and `COc1cc(Nc2nccc(-c3sc(NCC4CCCO4)nc3C)n2)cc(OC)c1` (stereo not drawn) [Example 719, N-(3,5-dimethoxyphenyl)-4-{4-methyl-2-[(tetrahydrofuran-2-ylmethyl)amino]-1,3-thiazol-5-yl}pyrimidine-2-amine], with 2.02.
Still for that read-out and setting: then `Cc1nc(NCC2CCCO2)sc1-c1ccnc(Nc2ccc(N3CCCC3=O)cc2)n1` (stereo not drawn) [Example 720, 1-{4-[(4-{4-methyl-2-[(tetrahydrofuran-2-ylmethyl)amino]-1,3-thiazol-5-yl}pyrimidin-2-yl)amino]phenyl}pyrrolidin-2-one], with 1.6.
Same read-out and setting: then `CCc1nc(C)c(-c2ccnc(Nc3ccc(OCC(C)(C)C)nc3)n2)s1` [Example 721, N-[6-(2,2-dimethylpropoxy)pyridin-3-yl]-4-(2-ethyl-4-methyl-1,3-thiazol-5-yl)pyrimidine-2-amine], with 4.23; and `COCCCNc1nc(C)c(-c2ccnc(Nc3ccccc3)n2)s1` [Example 725, 4-{2-[(3-methoxypropyl)amino]-4-methyl-1,3-thiazol-5-yl}-N-phenylpyrimidine-2-amine], with 1.81; and `COCCCNc1nc(C)c(-c2ccnc(Nc3cccc(Cl)c3)n2)s1` [Example 726, N-(3-chlorophenyl)-4-{2-[(3-methoxypropyl)amino]-4-methyl-1,3-thiazol-5-yl}pyrimidine-2-amine], with 2.28.
In the case of `COCC(C)Nc1nc(C)c(-c2ccnc(Nc3ccc(N4CCCC4=O)cc3)n2)s1` (stereo not drawn) [Example 728, 1-{4-[(4-{2-[(2-methoxy-1-methylethyl)amino]-4-methyl-1,3-thiazol-5-yl}pyrimidin-2-yl)amino]phenyl}pyrrolidin-2-one], the chromatographic logP turned out to be 1.64.
In the case of `COCC(C)Nc1nc(C)c(-c2ccnc(Nc3ccc(C(C)=O)cc3)n2)s1` (stereo not drawn) [Example 729, 1-{4-[(4-{2-[(2-methoxy-1-methylethyl)amino]-4-methyl-1,3-thiazol-5-yl}pyrimidin-2-yl)amino]phenyl}ethanone], the chromatographic logP stood at 1.92.
Same read-out and setting: for `Cc1nc(N2CCOCC2)sc1-c1ccnc(Nc2ccccc2)n1` [Example 731, 4-(4-methyl-2-morpholin-4-yl-1,3-thiazol-5-yl)-N-phenylpyrimidine-2-amine] the value was 2.25; for `CCc1nc(C)c(-c2ccnc(N(C(=O)OC)c3ccccc3)n2)s1` [Example 732, methyl-[4-(2-ethyl-4-methyl-1,3-thiazol-5-yl)pyrimidin-2-yl]phenylcarbamate], 2.59; for `CCCC(=O)c1ccc(Nc2nccc(-c3sc(CC)nc3C)n2)cc1` [Example 733, 1-(4-{[4-(2-ethyl-4-methyl-1,3-thiazol-5-yl)pyrimidin-2-yl]amino}phenyl)butan-1-one], 3.5.
On the same count and under the same terms, for `CC(=O)c1cccc(Nc2nccc(-c3sc(-c4cccnc4)nc3C)n2)c1` [Example 734, 1-(3-{[4-(4-methyl-2-pyridin-3-yl-1,3-thiazol-5-yl)pyrimidin-2-yl]amino}phenyl)ethanone] the value was 2.56; for `COc1cc(Nc2nccc(-c3sc(N4CCOCC4)nc3C)n2)cc(OC)c1OC` [Example 735, 4-(4-methyl-2-morpholin-4-yl-1,3-thiazol-5-yl)-N-(3,4,5-trimethoxyphenyl)pyrimidine-2-amine], 2.07.
In the case of `CC(=O)c1cccc(Nc2nccc(-c3sc(N4CCOCC4)nc3C)n2)c1` [Example 736, 1-(3-{[4-(4-methyl-2-morpholin-4-yl-1,3-thiazol-5-yl)pyrimidin-2-yl]amino}phenyl)ethanone], the chromatographic logP worked out at 2.16.
On the same count and under the same terms, for `COCC(C)Nc1nc(C)c(-c2ccnc(Nc3ccc(N)cc3)n2)s1` (stereo not drawn) [Example 737, N-(4-{2-[(2-methoxy-1-methylethyl)amino]-4-methyl-1,3-thiazol-5-yl}pyrimidin-2-yl)benzene-1,4-diamine] the value was 1.68; for `COCCCNc1nc(C)c(-c2ccnc(Nc3cccc(C(C)=O)c3)n2)s1` [Example 738, 1-{3-[(4-{2-[(3-methoxypropyl)amino]-4-methyl-1,3-thiazol-5-yl}pyrimidin-2-yl)amino]phenyl}ethanone], 1.75.
The same measure, in the same setting: for `Cc1nc(N2CCOCC2)sc1-c1ccnc(Nc2cccc(Cl)c2)n1` [Example 745, N-(3-chlorophenyl)-4-(4-methyl-2-morpholin-4-yl-1,3-thiazol-5-yl)pyrimidine-2-amine] the value was 2.99.
The same measure, in the same setting: then `CCc1nc(C)c(-c2ccnc(Nc3cncc(C)c3)n2)s1` [Example 747, 4-(2-ethyl-4-methyl-1,3-thiazol-5-yl)-N-(5-methylpyridin-3-yl)pyrimidine-2-amine], with 1.41.
Regarding `CCc1nc(C)c(-c2ccnc(Nc3ccc(N4CCCC4=O)cc3)n2)s1` [Example 748, 1-(4-{[4-(2-ethyl-4-methyl-1,3-thiazol-5-yl)pyrimidin-2-yl]amino}phenyl)pyrrolidin-2-one], the chromatographic logP was 2.24.
On the same count and under the same terms, then `Cc1nc(C)c(-c2ccnc(Nc3ccc(N4CCCC4=O)cc3)n2)s1` [Example 749, 1-(4-{[4-(2,4-dimethyl-1,3-thiazol-5-yl)pyrimidin-2-yl]amino}phenyl)pyrrolidin-2-one], with 1.99; and `COCCNc1nc(C)c(-c2ccnc(Nc3ccc(F)c(C)c3)n2)s1` [Example 750, N-(4-fluoro-3-methylphenyl)-4-{2-[(2-methoxyethyl)amino]-4-methyl-1,3-thiazol-5-yl}pyrimidine-2-amine], with 2.04.

The record behind these values is US20090030024A1, “THIAZOLES AS FUNGICIDES” (priority 2005, published 2009).
